Experimental data reported in ChEMBL document CHEMBL5625164, “Design, synthesis, and evaluation of new anti-inflammatory natural products amide derivatives endowed with anti-blood cancer activity towards development of potential multifunctional agents against hematological cancers” (Eur J Med Chem, 2023).

What was measured:
[1] = Cytotoxicity against mouse RAW264.7 cells assessed as macrophage viability at 10 uM relative to control; assay type: toxicity, cell-based; details: read-out: Activity
HL-60 [2] = test: Induction of cell cycle arrest in human HL-60 cells assessed as accumulation of cells at G2/M phase at 10 uM measured after 48 hrs by propidium iodide staining based flow cytometry (reference value: 16.61%); assay type: functional
HL-60 [3] = test: Induction of apoptosis in human HL-60 cells assessed as early apoptotic cells measured after 24 hrs by annexin V/propidium iodide staining based FACS assay; assay type: functional, cell-based; details: dose 10-50 µM
BV-2 [4] = test: Anti-inflammatory activity against mouse BV-2 cells assessed as inhibition of LPS-induced NO production at 10 uM pretreated for 2 hrs followed stimulated with LPS for 22 hrs by Griess reaction assay relative to control; assay type: functional; details: time 24 hrs
HL-60 [5] = test: Induction of cell cycle arrest in human HL-60 cells assessed as accumulation of cells at SubG1 phase at 25 uM measured after 24 hrs by propidium iodide staining based flow cytometry (reference value: 5.89%); assay type: functional
HL-60 [6] = test: Induction of cell cycle arrest in human HL-60 cells assessed as accumulation of cells at S phase at 10 uM measured after 24 hrs by propidium iodide staining based flow cytometry (reference value: 13.85%); assay type: functional
MOLT-4 [7] = test: Anticancer activity against human MOLT-4 cells assessed as growth inhibition at 10 uM measured after 48 hrs by SRB assay relative to control; assay type: functional; details: read-out: GI
HL-60 [8] = test: Induction of cell cycle arrest in human HL-60 cells assessed as accumulation of cells at G0/G1 phase at 10 uM measured after 24 hrs by propidium iodide staining based flow cytometry (reference value: 66.61%); assay type: functional
HL-60 [9] = test: Induction of cell cycle arrest in human HL-60 cells assessed as accumulation of cells at SubG1 phase at 50 uM measured after 24 hrs by propidium iodide staining based flow cytometry (reference value: 5.89%); assay type: functional
HL-60 [10] = test: Induction of cell cycle arrest in human HL-60 cells assessed as accumulation of cells at S phase at 10 uM measured after 48 hrs by propidium iodide staining based flow cytometry (reference value: 7.16%); assay type: functional
BV-2 [11] = test: Anti-inflammatory activity against mouse BV-2 cells assessed as inhibition of LPS-induced PGE2 production pretreated for 2 hrs followed stimulated with LPS for 22 hrs; assay type: functional, cell-based
BV-2 [12] = test: Anti-inflammatory activity against mouse BV-2 cells assessed as inhibition of LPS-induced TNFalpha production pretreated for 2 hrs followed stimulated with LPS for 22 hrs; assay type: functional, cell-based; details: time 24.0 hrs
MOLT-4 [13] = test: Anticancer activity against human MOLT-4 cells assessed as growth inhibition measured after 48 hrs by SRB assay relative to control; assay type: functional
HL-60 [14] = test: Induction of cell cycle arrest in human HL-60 cells assessed as accumulation of cells at SubG1 phase at 25 uM measured after 48 hrs by propidium iodide staining based flow cytometry (reference value: 4.25%); assay type: functional
BV-2 [15] = test: Anti-inflammatory activity against mouse BV-2 cells assessed as inhibition of LPS-induced TNFalpha production pretreated for 2 hrs followed stimulated with LPS for 22 hrs at 10 uM relative to control; assay type: functional; details: time 24 hrs
HL-60 [16] = test: Induction of cell cycle arrest in human HL-60 cells assessed as accumulation of cells at G0/G1 phase at 50 uM measured after 24 hrs by propidium iodide staining based flow cytometry (reference value: 66.61%); assay type: functional
HL-60 [17] = test: Induction of cell cycle arrest in human HL-60 cells assessed as accumulation of cells at SubG1 phase at 50 uM measured after 48 hrs by propidium iodide staining based flow cytometry (reference value: 4.25%); assay type: functional
K562 [18] = test: Anticancer activity against human K562 cells assessed as growth inhibition measured after 48 hrs by SRB assay relative to control; assay type: functional
HL-60 [19] = test: Anticancer activity against human HL-60 cells assessed as growth inhibition measured after 48 hrs by SRB assay relative to control; assay type: functional
HL-60 [20] = test: Induction of apoptosis in human HL-60 cells assessed as total apoptotic cells measured after 24 hrs by annexin V/propidium iodide staining based FACS assay; assay type: functional, cell-based; details: dose 10-50 µM
HL-60 [21] = test: Induction of cell cycle arrest in human HL-60 cells assessed as accumulation of cells at G2/M phase at 10 uM measured after 24 hrs by propidium iodide staining based flow cytometry (reference value: 9.01%); assay type: functional
HL-60 [22] = test: Induction of cell cycle arrest in human HL-60 cells assessed as accumulation of cells at S phase at 25 uM measured after 48 hrs by propidium iodide staining based flow cytometry (reference value: 7.16%); assay type: functional
HL-60 [23] = test: Induction of cell cycle arrest in human HL-60 cells assessed as accumulation of cells at G2/M phase at 50 uM measured after 24 hrs by propidium iodide staining based flow cytometry (reference value: 9.01%); assay type: functional
HL-60 [24] = test: Induction of cell cycle arrest in human HL-60 cells assessed as accumulation of cells at G0/G1 phase at 50 uM measured after 48 hrs by propidium iodide staining based flow cytometry (reference value: 60.03%); assay type: functional
CCRF-CEM [25] = test: Anticancer activity against human CCRF-CEM cells assessed as growth inhibition measured after 48 hrs by SRB assay relative to control; assay type: functional
HL-60 [26] = test: Induction of cell cycle arrest in human HL-60 cells assessed as accumulation of cells at S phase at 50 uM measured after 24 hrs by propidium iodide staining based flow cytometry (reference value: 13.85%); assay type: functional
RPMI-8226 [27] = test: Anticancer activity against human RPMI-8226 cells assessed as growth inhibition measured after 48 hrs by SRB assay relative to control; assay type: functional
SR [28] = test: Anticancer activity against human SR cells assessed as growth inhibition measured after 48 hrs by SRB assay relative to control; assay type: functional
HL-60 [29] = test: Induction of cell cycle arrest in human HL-60 cells assessed as accumulation of cells at G0/G1 phase at 10 uM measured after 48 hrs by propidium iodide staining based flow cytometry (reference value: 60.03%); assay type: functional
HL-60 [30] = test: Induction of cell cycle arrest in human HL-60 cells assessed as accumulation of cells at SubG1 phase at 10 uM measured after 24 hrs by propidium iodide staining based flow cytometry (reference value: 5.89%); assay type: functional
HL-60 [31] = test: Induction of cell cycle arrest in human HL-60 cells assessed as accumulation of cells at SubG1 phase at 10 uM measured after 48 hrs by propidium iodide staining based flow cytometry (reference value: 4.25%); assay type: functional
HL-60 [32] = test: Induction of cell cycle arrest in human HL-60 cells assessed as accumulation of cells at G2/M phase at 25 uM measured after 48 hrs by propidium iodide staining based flow cytometry (reference value: 16.61%); assay type: functional
RPMI-8226 [33] = test: Anticancer activity against human RPMI-8226 cells assessed as growth inhibition at 10 uM measured after 48 hrs by SRB assay relative to control; assay type: functional; details: read-out: GI
SR [34] = test: Anticancer activity against human SR cells assessed as growth inhibition at 10 uM measured after 48 hrs by SRB assay relative to control; assay type: functional; details: read-out: GI
HL-60 [35] = test: Induction of cell cycle arrest in human HL-60 cells assessed as accumulation of cells at G0/G1 phase at 25 uM measured after 48 hrs by propidium iodide staining based flow cytometry (reference value: 60.03%); assay type: functional
CCRF-CEM [36] = test: Anticancer activity against human CCRF-CEM cells assessed as growth inhibition at 10 uM measured after 48 hrs by SRB assay relative to control; assay type: functional; details: read-out: GI
HL-60 [37] = test: Induction of cell cycle arrest in human HL-60 cells assessed as accumulation of cells at S phase at 50 uM measured after 48 hrs by propidium iodide staining based flow cytometry (reference value: 7.16%); assay type: functional
BV-2 [38] = test: Anti-inflammatory activity against mouse BV-2 cells assessed as inhibition of LPS-induced NO production pretreated for 2 hrs followed stimulated with LPS for 22 hrs by Griess reaction assay; assay type: functional, cell-based
HL-60 [39] = test: Induction of cell cycle arrest in human HL-60 cells assessed as accumulation of cells at G2/M phase at 25 uM measured after 24 hrs by propidium iodide staining based flow cytometry (reference value: 9.01%); assay type: functional
HL-60 [40] = test: Induction of cell cycle arrest in human HL-60 cells assessed as accumulation of cells at S phase at 25 uM measured after 24 hrs by propidium iodide staining based flow cytometry (reference value: 13.85%); assay type: functional
BV-2 [41] = test: Anti-inflammatory activity against mouse BV-2 cells assessed as inhibition of LPS-induced PGE2 production pretreated for 2 hrs followed stimulated with LPS for 22 hrs at 10 uM relative to control; assay type: functional; details: time 24 hrs
HL-60 [42] = test: Induction of cell cycle arrest in human HL-60 cells assessed as accumulation of cells at G0/G1 phase at 25 uM measured after 24 hrs by propidium iodide staining based flow cytometry (reference value: 66.61%); assay type: functional
K562 [43] = test: Anticancer activity against human K562 cells assessed as growth inhibition at 10 uM measured after 48 hrs by SRB assay relative to control; assay type: functional; details: read-out: GI
HL-60 [44] = test: Induction of cell cycle arrest in human HL-60 cells assessed as accumulation of cells at G2/M phase at 50 uM measured after 48 hrs by propidium iodide staining based flow cytometry (reference value: 16.61%); assay type: functional

**Q.** Which results are given for `COc1cc2c(c(OC)c1OC)C(=O)CC(c1cccc(NC(=O)c3ccc(Br)cc3)c1)O2` (racemic)?
**A.** viability at 10 µM [1]: 106%; Activity (HL-60 [2]): 26.61%; Activity (HL-60 [3]): Dose-Dependent Effect; inhibition at 10 µM (BV-2 [4]): 45.2%; Activity (HL-60 [5]): 43.13%; Activity (HL-60 [6]): 19.25%; inhibition of growth at 10 µM (MOLT-4 [7]): 112%; Activity (HL-60 [8]): 51.19%; Activity (HL-60 [9]): 70.09%; Activity (HL-60 [10]): 12.39%; IC50 (BV-2 [11]): 9100 nM; Activity (BV-2 [12]): Dose-Dependent Effect; GI50 (MOLT-4 [13]): 1630 nM; Activity (HL-60 [14]): 74.54%; inhibition at 10 µM (BV-2 [15]): 50%; Activity (HL-60 [16]): 4.82%; Activity (HL-60 [17]): 90.39%; GI50 (K562 [18]): 1420 nM; GI50 (HL-60 [19]): 1640 nM; Activity (HL-60 [20]): Dose-Dependent Effect; Activity (HL-60 [21]): 5.69%; Activity (HL-60 [22]): 1.33%; Activity (HL-60 [23]): 1.8%; Activity (HL-60 [24]): 3.96%; GI50 (CCRF-CEM [25]): 2620 nM; Activity (HL-60 [26]): 5.77%; GI50 (RPMI-8226 [27]): 1580 nM; GI50 (SR [28]): 1340 nM; Activity (HL-60 [29]): 33.83%; Activity (HL-60 [30]): 6.15%; Activity (HL-60 [31]): 8.99%; Activity (HL-60 [32]): 10.01%; inhibition of growth at 10 µM (RPMI-8226 [33]): 105%; inhibition of growth at 10 µM (SR [34]): 96.1%; Activity (HL-60 [35]): 5.89%; inhibition of growth at 10 µM (CCRF-CEM [36]): 97.1%; Activity (HL-60 [37]): 1.21%; IC50 (BV-2 [38]): 14700 nM; Activity (HL-60 [39]): 2.22%; Activity (HL-60 [40]): 27.79%; inhibition at 10 µM (BV-2 [41]): 61.1%; Activity (HL-60 [42]): 2.08%; inhibition of growth at 10 µM (K562 [43]): 94.1%; Activity (HL-60 [44]): 1.61%
